{
  "source": "patent US20100292229A1",
  "about": "“TRYPHOSTIN-ANALOGS FOR THE TREATMENT OF CELL PROLIFERATIVE DISEASES” (The Board of Regents of the University of Texas System, priority 2006, published 2010)",
  "type_in_all_cases": "cell-based",
  "key": {"[1]": {"tested_on": "Normal dermal human fibroblasts (NDF)", "assay": "Growth/survival and MTT assay of normal dermal fibroblasts", "method": "Normal dermal human fibroblasts were treated for 1 h at 5 μM Degrasyn before cells were rinsed and cultured in normal growth media for 72 h. Control and treated cells were photographed after 72 h. […] An MTT assay was performed with NDF and A375 cells under these conditions (1 h treatment, 72 h incubation) to estimate the IC50 distinctions between these populations.\nMTT (viability) assay. MTT reagent (20 μl of 5 mg/ml stock solution, Sigma) is added to the cells and the plates are incubated at 37° C. for another 2 h. Cells are lysed by adding 100 μl of lysis buffer (20% SDS in 50% N,N-dimethylformamide (Sigma) adjusted to pH 4.7 by 80% acetic acid and 1 M HCl such that the final concentration of acetic acid is 2.5% and HCl is 2.5%) into each well and incubated for 6 h. The OD570 of each sample is determined by using a SPECTRA MAX M2 plate reader (Molecular Devices). The OD in control and treated wells is used as an estimate of the effect of compounds on cell growth and survival.\nCell lines. […] A375 melanoma cells were grown and maintained in the same media. […]"}, "Stat3": {"tested_on": "Stat3", "assay": "IL-6 stimulated Stat3 activation (pY-Stat3) immunoblot in MM-1 cells", "method": "Left: MM-1 cells were pretreated with Degrasyn (5 μM WP1130) for 2 h before incubation with IL-6 (10 ng/ml) for 15 min. Cell lysates were prepared and assessed for Stat3 activation (pY-Stat3) and protein levels (Stat3) by immunoblotting. Actin was used as a control for protein loading.\nLeft: MM-1 cells were pretreated with buffer alone (−), AG490 (50 μM) or Degrasyn (5 μM) for 2 h before incubation with IL-6 for 15 min. Cell lysates were prepared and Jak2 was immunoprecipitated and immunoblotted with anti-Jak2 (top). Cell lysates (50 μg) were immunoblotted for pY-Stat3, Stat3 or actin.\nWestern Blot analysis. Cells were harvested, washed twice in cold 1×PBS and lysed in modified RIPA lysis buffer (150 mM NaCl, 1% NP-40, 0.5% Na-deoxycholate [DOC], 0.1% Na-dodecyl sulfate [SDS], 50 mM Tris-HCl (pH 7.5), 1 mM EDTA, 1 mM NaF, 2 mM Na-vanadate, with protease inhibitors (1 mM PMSF, 1 mM benzamidine, 10 μg/ml aprotinin, 10 μg/ml leupeptin) on ice for 30 min. The lysed cells were centrifuged at 13,000 rpm for 30 min and the supernatant collected. The protein concentration of the cell lysate was determined by the Bradford Protein Assay. Fifty to 60 μg of protein were resolved in a 10% SDS-PAGE, and transferred to a PVDF membrane. […]"}, "[2]": {"tested_on": "c-myc and activated Stat3", "assay": "c-myc, pY-Stat3, Stat3, p53, p-MAPK immunoblot in A375 melanoma cells", "details": "A375, 2 h", "method": "A375 melanoma cells were pretreated with Degrasyn at the concentration noted for 2 h before the addition of 10 ng/ml IL-6 for 15 min. Cell lysates were prepared and equal protein aliquots were resolved by SDS-PAGE and immunoblotted for c-myc, p53 (wild-type), activated Stat3 (pY-Stat3), Stat3 and activated Erk1/2 kinase (p-MAPK).\n(§1) Western Blot analysis. Cells were harvested, washed twice in cold 1×PBS and lysed in modified RIPA lysis buffer (150 mM NaCl, 1% NP-40, 0.5% Na-deoxycholate [DOC], 0.1% Na-dodecyl sulfate [SDS], 50 mM Tris-HCl (pH 7.5), 1 mM EDTA, 1 mM NaF, 2 mM Na-vanadate, with protease inhibitors (1 mM PMSF, 1 mM benzamidine, 10 μg/ml aprotinin, 10 μg/ml leupeptin) on ice for 30 min. The lysed cells were centrifuged at 13,000 rpm for 30 min and the supernatant collected. The protein concentration of the cell lysate was determined by the Bradford Protein Assay. Fifty to 60 μg of protein were resolved in a 10% SDS-PAGE, and transferred to a PVDF membrane. Western blotting was performed using specific primary antibodies Peroxidase-conjugated affiniPure anti-Mouse Anti-Rabbit secondary antibodies (Jackson Immunoresearch Laboratories, West Grove, Pa.). The proteins were visualized with ECL Plus reagents (Amersham Biosciences)."}, "c-myc": {"target": "T1, c-myc (Homo sapiens, UniProt P01106)", "T1 construct": "endogenous in cells; host or cells: MM-1 cells", "T1 sequence (P01106 16-454 limits assumed)": "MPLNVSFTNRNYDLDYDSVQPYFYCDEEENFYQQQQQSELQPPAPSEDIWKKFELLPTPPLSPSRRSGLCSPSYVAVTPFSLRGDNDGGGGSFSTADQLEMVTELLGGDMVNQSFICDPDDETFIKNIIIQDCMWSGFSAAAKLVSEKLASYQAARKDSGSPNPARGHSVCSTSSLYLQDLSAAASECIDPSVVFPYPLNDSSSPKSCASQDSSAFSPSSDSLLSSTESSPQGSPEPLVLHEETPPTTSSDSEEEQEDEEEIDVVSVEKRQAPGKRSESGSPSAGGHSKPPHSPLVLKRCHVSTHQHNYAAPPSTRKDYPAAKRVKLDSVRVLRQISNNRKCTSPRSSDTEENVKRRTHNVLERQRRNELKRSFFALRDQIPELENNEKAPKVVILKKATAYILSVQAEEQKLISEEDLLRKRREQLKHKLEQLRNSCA", "assay": "c-myc protein immunoblot in MM-1 cells", "method": "Top: MM-1 cells were incubated with 5 μM Degrasyn for the interval noted before cell lysates were prepared and subjected to immunoblotting for c-myc and actin as a protein loading control.\nMiddle: MM-1 cells were treated with the indicated concentration of Degrasyn for 1 h before lysates were immunoblotted for c-myc and actin.\nBottom: MM-1 cells were treated as indicated before extraction of total RNA (TRIzol). RNA was resolved by agarose electrophoresis, transferred to a membrane and hybridized with a c-myc probe to determine the level of c-myc RNA in each sample. The ethidium bromide stained gel was photographed and 28S RNA content was detected as a measure of RNA content in each lane.\nMM-1 cells were pretreated with protease/proteosome inhibitors (LLnL; LLnM; E-64d; MG132; PS341; Chloroquine; Ammonium Chloride; Cycloheximide) for 2 h before the addition of 5 μM Degrasyn or vehicle alone (DMSO as indicated) for an additional 2 h. Cell lysates were prepared and equal protein aliquots were subjected to immunoblotting for c-myc, Max (a c-myc binding partner) or actin as a protein loading control.\nPictured: MM-1 cells were treated with biotinylated Degrasyn (Bio-Deg) or Degrasyn (at the indicated concentration) for 1 h before analyzing effects on c-myc as described in FIG. 15.\nas §1"}, "[3]": {"tested_on": "p70 and p55 tyrosine phosphorylation", "assay": "Phosphotyrosine (4G10) immunoblot in B-cell malignancy cell lines", "method": "MM-1 cells were pretreated with Degrasyn (at the concentration indicated) for 2 h before the addition of IL-6 for 15 min (as noted). Total cell lysates were prepared and equal protein aliquots were resolved by SDS-PAGE and immunoblotted for phosphotyrosine (4G10).\nMM-1 and LP (lymphoma) cells were treated with Degrasyn (at the concentration indicated) for 2 h before cell lysates were prepared and equal protein aliquots were resolved by SDS-PAGE and immunoblotted for phosphotyrosine (4G10).\nMM-1 and Mino (Mantle cell lymphoma) cells were treated with Degrasyns with different levels of anti-tumor efficacy (at the concentration indicated) for 2 h before cell lysates were prepared and equal protein aliquots were resolved by SDS-PAGE and immunoblotted for phosphotyrosine (4G10).\nMM-1 cells were treated as indicated before analysis of cellular tyrosine phosphorylation by immunoblotting. Both p70 and p55 were tyrosine phosphorylated after 15 min of Degrasyn treatment which peaks in intensity after 1 h and remains higher than control levels after 4 h. These early changes may underlie or be a marker of Degrasyn activity in B-cell malignancies.\nas §1"}},
  "data": [
    {"smiles": "CCC[C@H](NC(=O)/C(C#N)=C/c1cccc(Br)n1)c1ccccc1", "note": "[Degrasyn]", "values": [
      {"measurement": "Growth or survival of normal dermal fibroblasts", "setting": "[1]; 5 μM for 1 h, then 72 h in normal growth media", "result": "did not affect the growth or survival of NDFs"},
      {"measurement": "Activity against melanoma tumors relative to normal dermal fibroblast", "setting": "[1]; A375 vs NDF, MTT, 1 h treatment, 72 h incubation", "result": "> 5", "unit": "fold"},
      {"measurement": "Stat3 activation (pY-Stat3)", "setting": "Stat3; 5 μM, 2 h pretreatment, IL-6 10 ng/ml 15 min", "result": "blocked Stat3 activation"},
      {"measurement": "Stat3 activation compared with AG490", "setting": "Stat3; Degrasyn 5 μM vs AG490 50 μM, 2 h, IL-6 15 min", "result": "reduces Stat3 activation more effectively than 10-fold greater concentrations of AG490"},
      {"measurement": "c-myc protein levels and Stat3 activation", "setting": "[2]; then IL-6 10 ng/ml 15 min", "result": "reduced c-myc protein levels suppressed Stat3 activation at higher concentrations"},
      {"measurement": "Stat3, p-MAPK and p53 levels", "setting": "[2]; then IL-6 15 min", "result": "not affected"},
      {"measurement": "c-myc protein content and c-myc RNA", "setting": "c-myc", "result": "reduces c-myc protein content without effecting c-myc gene expression"},
      {"measurement": "c-myc protein, time course", "setting": "c-myc; 5 μM", "result": "caused a rapid reduction of c-myc protein"},
      {"measurement": "c-myc protein, concentration dependence", "setting": "c-myc; 1 h", "result": "caused a concentration dependent reduction in c-myc protein levels"},
      {"measurement": "c-myc protein levels", "setting": "c-myc; FIG. 21, 1 h", "result": "reduced c-myc protein levels"},
      {"measurement": "Tyrosine phosphorylated protein species (~70 kDa, ~55 kDa)", "setting": "[3]; 2 h, MM-1, LP or Mino cells", "result": "increased"},
      {"measurement": "Time at which p70 and p55 were tyrosine phosphorylated", "setting": "[3]; MM-1", "result": 15, "unit": "min"},
      {"measurement": "Time of peak intensity of p70 and p55 tyrosine phosphorylation", "setting": "[3]; MM-1", "result": 1, "unit": "h"},
      {"measurement": "Tyrosine phosphorylated protein species (~70 kDa, ~55 kDa), with IL-6", "setting": "[3]; MM-1, 2 h pretreatment, IL-6 15 min", "result": "increased"}
    ]}
  ]
}
